Test results from patent publication US10829499B2, “Tetracyclic heterocycle compounds useful as HIV integrase inhibitors” (MERCK SHARP & DOHME CORP., priority 2016, dated 2020).
Like-named read-outs stand apart in the source and are kept apart here.

Test system: HIV-1 (NL4-3 strain)
Assay: Assay for Inhibition of HIV Replication (kinetic assay, MT4-gag-GFP reporter cell line; VIKING)
Format: cell-based
Method in brief: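 MT4-gag-GFP cells infected with HIV-1 NL4-3 at low MOI for 24 h were seeded with compound (0.4% DMSO) in medium with 0%, 10% or 100% normal human serum. GFP-positive cells were counted at 24 and 48 h, and R0 was the 48 h/24 h ratio. Inhibition was scaled to DMSO and triple-drug controls, and IC50 came from 4-parameter fits.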

[1] = MT4-GFP cells infected with HIV-1 NL4-3, 0% normal human serum (NHS), read-out: VIKING IP50 (nM) with 0% NHS
[2] = MT4-GFP cells infected with HIV-1 NL4-3, 100% normal human serum (NHS), read-out: VIKING IP50 (nM) with 100% NHS
[3] = Human immunodeficiency virus 1, NL43, MT4-GFP cells infected with HIV-1 NL4-3, 0% normal human serum (NHS), read-out: VIKING IP50 (nM) with 0% NHS
[4] = Human immunodeficiency virus 1, NL43, MT4-GFP cells infected with HIV-1 NL4-3, 100% normal human serum (NHS), read-out: VIKING IP50 (nM) with 100% NHS

SMILES | IC50 [1] | IC50 [2] | IC50 [3] | IC50 [4]
O=C(NCc1ccc(F)cc1)c1c2n3c(c(O)c1=O)C(=O)N1C4CCC(C4)OC1C3CC2 (stereo not drawn) [Compound 161] | 2.67 nM | 5510 nM | – | –
O=C(NCc1ccc(F)cc1)c1c2n3c(c(O)c1=O)C(=O)N1C4CCC(C4)OC1C3CC2 (stereo not drawn) [Compound 162] | 3.9 nM | 50.4 nM | – | –
O=C(NCc1ccc(F)cc1)c1c2n3c(c(O)c1=O)C(=O)N1C4CCC(C4)OC1C3CC2 (stereo not drawn) [Compound 163] | 4.32 nM | 1660 nM | – | –
O=C(NCc1cccc(F)c1F)c1c2n3c(c(O)c1=O)C(=O)N1C4CCC(C4)OC1C3CC2 (stereo not drawn) [Compound 164] | – | 1390 nM | 4.89 nM | –
O=C(NCc1cccc(F)c1F)c1c2n3c(c(O)c1=O)C(=O)N1C4CCC(C4)OC1C3CC2 (stereo not drawn) [Compound 165] | 6.42 nM | 56.1 nM | – | –
O=C(NCc1cccc(F)c1F)c1c2n3c(c(O)c1=O)C(=O)N1C4CCC(C4)OC1C3CC2 (stereo not drawn) [Compound 166] | 5.39 nM | 50.6 nM | – | –
O=C(NCc1cccc(F)c1F)c1c2n3c(c(O)c1=O)C(=O)N1C4CCC(C4)OC1C3CC2 (stereo not drawn) [Compound 167] | 3.78 nM | 3390 nM | – | –
O=C(NCc1c(F)cc(F)cc1F)c1c2n3c(c(O)c1=O)C(=O)N1C4CCC(C4)OC1C3CC2 (stereo not drawn) [Compound 168] | – | 1620 nM | 3.72 nM | –
O=C(NCc1c(F)cc(F)cc1F)c1c2n3c(c(O)c1=O)C(=O)N1C4CCC(C4)OC1C3CC2 (stereo not drawn) [Compound 169] | 2.71 nM | 42.9 nM | – | –
O=C(NCc1c(F)cc(F)cc1F)c1c2n3c(c(O)c1=O)C(=O)N1C4CCC(C4)OC1C3CC2 (stereo not drawn) [Compound 170] | 2.59 nM | 5360 nM | – | –
O=C(NCc1c(F)cc(F)cc1F)c1c2n3c(c(O)c1=O)C(=O)N1C4CCC(C4)OC1C3CC2 (stereo not drawn) [Compound 171] | 2.82 nM | 74.6 nM | – | –
CCNC1C[C@@H]2[C@H]3OC4CCC(C4)N3C(=O)c3c(O)c(=O)c(C(=O)NCc4ccc(F)cc4F)c1n32 (stereo partly drawn) [Compound 174] | – | – | 30.2 nM | 114 nM
CCNC1C[C@@H]2[C@H]3OC4CCC(C4)N3C(=O)c3c(O)c(=O)c(C(=O)NCc4ccc(F)cc4F)c1n32 (stereo partly drawn) [Compound 175] | 20.8 nM | 78.8 nM | – | –
CCNC1C[C@H]2[C@H]3OC4CCC(C4)N3C(=O)c3c(O)c(=O)c(C(=O)NCc4ccc(F)cc4F)c1n32 (stereo partly drawn) [Compound 176] | – | – | 16.8 nM | 129 nM
CCNC1C[C@H]2[C@H]3OC4CCC(C4)N3C(=O)c3c(O)c(=O)c(C(=O)NCc4ccc(F)cc4F)c1n32 (stereo partly drawn) [Compound 177] | 11.2 nM | 191 nM | – | –
CCNC1CC2C3OCCCN3C(=O)c3c(O)c(=O)c(C(=O)NCc4c(F)cc(F)cc4F)c1n32 (stereo not drawn) [Compound 178] | 16 nM | 6090 nM | – | –
CCNC1CC2C3OCCCN3C(=O)c3c(O)c(=O)c(C(=O)NCc4c(F)cc(F)cc4F)c1n32 (stereo not drawn) [Compound 180] | 3.57 nM | 20.1 nM | – | –
CCNC1CC2C3OCCCN3C(=O)c3c(O)c(=O)c(C(=O)NCc4c(F)cc(F)cc4F)c1n32 (stereo not drawn) [Compound 181] | 6.41 nM | 29.9 nM | – | –
CCNC1CC2C3OCCCN3C(=O)c3c(O)c(=O)c(C(=O)NCc4c(F)cc(F)cc4F)c1n32 (stereo not drawn) [Compound 182] | 6.63 nM | 44.9 nM | – | –
CCNC1CC2C3OCCCN3C(=O)c3c(O)c(=O)c(C(=O)NCc4c(F)cc(F)cc4F)c1n32 (stereo not drawn) [Compound 183] | 13.3 nM | 3570 nM | – | –
CCNC1CC2C3OCCCN3C(=O)c3c(O)c(=O)c(C(=O)NCc4c(F)cc(F)cc4F)c1n32 (stereo not drawn) [Compound 184] | 5 nM | 167 nM | – | –
CCNC1CC2C3OCCCN3C(=O)c3c(O)c(=O)c(C(=O)NCc4cccc(F)c4F)c1n32 (stereo not drawn) [Compound 185] | – | – | 11.7 nM | 1160 nM
CCNC1CC2C3OCCCN3C(=O)c3c(O)c(=O)c(C(=O)NCc4cccc(F)c4F)c1n32 (stereo not drawn) [Compound 186] | 9.86 nM | 36.5 nM | – | –
CCNC1CC2C3OCCCN3C(=O)c3c(O)c(=O)c(C(=O)NCc4cccc(F)c4F)c1n32 (stereo not drawn) [Compound 187] | 3.51 nM | 49.1 nM | – | –
